Reference: US8222295B2, “Compositions comprising polyunsaturated fatty acid monoglycerides or derivatives thereof and uses thereof” (Centre de Recherche sur les Biotechnologies Marines, priority 2007, dated 2012)
Converted amounts (≈) assume the structure as drawn.

Columns and labels:
[1] = human, in vivo
Method: The volunteer fasted for 12 hours prior to the study. […] Controlled amount of boiled pasta was eaten after the 4 h time point. An initial blood sample (400 μl) was collected using a lancet at a fingertip into heparin tubes followed by samples at 1, 2, 3, 4, 5, 6, 7 and 8 hour after ingestion. Plasma was separated and immediately analysed for fatty acid composition.
The AUC (calculates area under the curve for concentration vs. time data) is calculated using linear trapezoidal rule. […] In this experiment, the doses are the same. […] The relative bioavailability of compound 1 and compound 5 is calculated with the same formula:

[2] = system: HCT-15 human colon cancer cell line; assay: in vitro cell viability assay (SRB) on HCT-15; format: cell-based
Method: (§1) Five consecutive dilutions with a equal volume of DMSO was performed. […] Precipitation occur at high concentration of curcumin. […] Five consecutive dilutions with a equal volume of DMSO was performed. […] The cell viability assay is performed to measure the relative cell viability status of cancer cells upon exposure to test compounds in comparison to a positive control (etoposide) and a negative control (vehicule). Adherent cells growing in 96-well plates are exposed to test compounds for 3 days (72 hours). […] All conditions are tested in triplicate. […] After the incubation time, total protein content is quantified following staining with the anionic dye sulforhodamine B (SRB). The detection of luminescence, emitted by SRB, is completed by a microplate reader. This method of detection is based upon works published by Monks et al., in Journal of the National Cancer Institute vol. 82 no. […] The amount of luminescence is directly proportional to the number of living cells in culture. […] Cells were trypsinized using 0.25% trypsine (w/v)/0.53 mM EDTA solution (Hyclone), counted and plated at densities between 1000 and 3000 cells per well in flat bottom 96-well clear plates (Becton Dickinson) in 100 μl of appropriate culture medium supplemented with fetal bovine serum (Hyclone). […] Absorbance was read at 515 nm using a 96-well plate Multiskan Spectrum luminescence reader (Thermo Electron Corporation). […]

[3] = system: PC-3 human prostate cancer cell line; assay: in vitro cell viability assay (SRB) on PC-3; format: cell-based
Method: as §1

[4] = system: A-549 human lung cancer cell line; assay: in vitro cell viability assay (SRB) on A-549; format: cell-based
Method: as §1

[5] = system: human monocyte THP-1 cells; assay: LPS-induced TNF-α release by monocyte cells (ELISA); format: cell-based; details: 100 ng/ml of LPS, 4 hours, composition 3 10 μg/ml, curcumin 5 μg/ml
Method: Composition 3 (comprising compounds 1 and 5) at final concentration of 10 μg/ml, curcumin (5 μg/ml) and a 1:1 mixture of composition 3 ([…]) and curcumin (5 μg/ml) in DMSO (1%) was used for the in vitro assay. Composition 3 prepared according to the same procedure as previously described in Example 2)
The in vitro assay allows evaluation of the potential anti-inflammatory effects of compounds on the induced-release of pro-inflammatory mediator by monocyte cells. Typical human monocyte THP-1 cells, involved in inflammatory processes, are used in this assay. Measurement of pro-inflammatory mediator TNF-α is performed by ELISA (manufactured by R&D Systems) with artificial induction of pro-inflammatory agents by LPS (E. Coli 055:B5) during 4 hours. Known anti-inflammatory agent dexametazone was used as positive control.

In the case of `CC/C=C\C/C=C\C/C=C\C/C=C\C/C=C\CCCCCC(=O)OCC(O)CO` (stereo not drawn) [compound 1], the “relative bioavailability of compound 1 compared to compound 5” value [1] is reported as 2.20.
With `COc1cc(/C=C/C(=O)CC(=O)/C=C/c2ccc(O)c(OC)c2)ccc1O` [curcumin] the IC50 ([2]; HCT-15, 72 hours, SRB, concentration of the tested substance or composition, read-out: 50% growth inhibition concentration) was roughly 100 µg/mL (≈ 271 µM), the IC50 ([3]; PC-3, 72 hours, SRB, concentration of the tested substance or composition, read-out: 50% growth inhibition concentration) was roughly 75 µg/mL (≈ 204 µM) and the IC50 ([4]; A549, A-549, 72 hours, SRB, concentration of the tested substance or composition, read-out: 50% growth inhibition concentration) was roughly 100 µg/mL (≈ 271 µM). For the same compound, the TNF-α measured [5] was 100 µg/mL.
`C[C@@H]1C[C@H]2[C@@H]3CCC4=CC(=O)C=C[C@]4(C)[C@@]3(F)[C@@H](O)C[C@]2(C)[C@@]1(O)C(=O)CO` [dexametazone] gave a TNF-α measured [5] of 125 µg/mL.
Compound `COc1cc([C@@H]2c3cc4c(cc3[C@@H](O[C@@H]3O[C@@H]5CO[C@@H](C)O[C@H]5[C@H](O)[C@H]3O)[C@H]3COC(=O)[C@H]23)OCO4)cc(OC)c1O` [etoposide] has an inhibition at 294 µg/mL ([2]; HCT-15, positive control at 294 μg/ml, read-out: growth inhibition) of 100%, an inhibition at 294 µg/mL ([3]; PC-3, positive control at 294 μg/ml, read-out: growth inhibition) of 100% and an inhibition at 294 µg/mL ([4]; A549, A-549, positive control at 294 μg/ml, read-out: growth inhibition) of 100%.
